Target: T1, ER beta receptor (Homo sapiens, UniProt Q92731)
T1 construct: purchased PanVera
Test: Competition ER binding assay (3H-Estradiol displacement)
Conditions: for Ratio of Ki(nM)ER alpha/Ki(nM) ER beta: selectivity ratio Ki ER alpha / Ki ER beta, Ki from IC50 by Cheng-Prusoff, 3H-Estradiol, ERAlpha or ERbeta Receptor (PanVera)
Description: The competition ER binding assay was run in a buffer containing 50 mM N-[2-hydroxyethyl]piperazine-N′-[2-ethanesulfonic acid (Hepes) pH 7.5, 1.5 mM EDTA, 150 mM NaCl, 10% glycerol, 1 mg/mL ovalbumin, 5 mM DTT, 0.025 μCi per well of ^3H-Estradiol(NEN #NET517 at 118 Ci/mmol, 1 mCi/mL), and 10 ng/well ERAlpha or ERbeta Receptor (PanVera). Competing compounds were added at 10 different concentrations. Non-specific binding was determined in the presence of 1 μM of E2 (17-β Estradiol, Sigma, St. Louis, Mo.). The binding reaction (140 μL) was incubated for 4 hours at room temperature, then 70 μL of cold dextran coated charcoal (DCC) buffer was added to each reaction (DCC buffer was prepared by adding 0.75 g of charcoal[Sigma] and 0.25 g of dextran [Pharmacia] per 50 mL of assay buffer). The incubation plates were mixed for 8 minutes on an orbital shaker at 4° C. and then centrifuged at 3,000 rpm for 10 minutes at 4° C. An aliquot of 120 μl of the mix was transferred to another 96-well, white flat bottom plate (Costar) and 175 μl of Wallac Optiphase Hisafe 3 scintillation fluid was added to each well. The plates were sealed and then shaken vigorously on an orbital shaker. After an incubation of 2.5 hrs, the radioactivity was counted in a Wallac Microbeta counter. […] The Kd for ^3H-Estradiol was determined by saturation binding to ERα and ERβ receptors. The IC50 values for compounds were converted to Ki values using the Cheng-Prusoff equation and the Kd values were determined by saturation binding assay.

T1 sequence (Q92731 whole entry): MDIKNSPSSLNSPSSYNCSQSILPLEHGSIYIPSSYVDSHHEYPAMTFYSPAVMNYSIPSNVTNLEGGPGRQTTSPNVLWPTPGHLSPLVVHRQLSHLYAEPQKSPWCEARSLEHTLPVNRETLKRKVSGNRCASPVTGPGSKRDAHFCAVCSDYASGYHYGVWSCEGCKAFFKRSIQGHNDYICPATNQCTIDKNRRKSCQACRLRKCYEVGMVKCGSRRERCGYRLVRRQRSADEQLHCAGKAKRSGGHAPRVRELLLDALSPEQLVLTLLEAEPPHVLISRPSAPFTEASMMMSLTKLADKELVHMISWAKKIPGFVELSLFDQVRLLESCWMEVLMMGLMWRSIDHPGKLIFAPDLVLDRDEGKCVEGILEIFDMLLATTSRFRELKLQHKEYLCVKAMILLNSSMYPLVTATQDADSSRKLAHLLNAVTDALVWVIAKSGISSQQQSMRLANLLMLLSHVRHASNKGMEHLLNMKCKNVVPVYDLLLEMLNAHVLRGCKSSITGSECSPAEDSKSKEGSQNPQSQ

Structure (SMILES) | activity in the ER binding assay | Ratio of Ki(nM)ER alpha/Ki(nM) ER beta
Oc1ccc2c(c1)[C@H]1CCC[C@H]1[C@@H](c1ccc(C(F)(F)F)cc1)O2 (racemic) [Example 4, (±)-2-(4-Trifluoromethylphenyl)-6-hydroxy-cyclopentyl[c]3,4-dihydro-2H-1-benzopyran] | active | 6.9
CCc1ccc([C@H]2Oc3ccc(O)cc3[C@H]3CCC[C@H]32)cc1 (racemic) [Example 3, (±)-2-(4-ethylphenyl)-6-hydroxy-cyclopentyl[c]3,4-dihydro-2H-1-benzopyran] | active | 2.6
Cc1ccc([C@H]2Oc3ccc(O)cc3[C@H]3CCC[C@H]32)cc1 (racemic) [Example 6, (±)-2-(4-Methylphenyl)-6-hydroxy-cyclopentyl[c]3,4-dihydro-2H-1-benzopyran] | active | 12.6
Oc1ccc2c(c1)[C@H]1CCC[C@H]1[C@@H](c1ccc(F)cc1)O2 (racemic) [Example 2, (±)-2-(4-Fluorophenyl)-6-hydroxy-cyclopentyl[c]3,4-dihydro-2H-1-benzopyran] | active | 5.0

Reference: patent US6630508B1, “Substituted benzopyrans as selective estrogen receptor β agonists” (Eli Lilly and Company, priority 2002, dated 2003)
